Here are results for ten molecules from ChEMBL document CHEMBL1201862, “PubChem BioAssay data set” (2004).

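Dose response: 5 concentrations. Exposure: 48 h. Format: 96-well plates. Endpoint: linear interpolation; highest concentration if not reached. The concentration for 50% growth inhibition is given as GI50.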 Calls of active or inactive are those of the source. Rule as the data show it: active = GI50 up to about 1.1 µM and inactive = higher.

Holding throughout (test): inhibition of tumour cell growth, NCI panel, 48 h
The subject of assay [1] is U-251.
Assay [2] has as its system OVCAR-4.
Assay [3] deals with HT-29.
The subject of assay [4] is UO-31.
Assay [5] concerns HOP-62.
Assay [6] has as its system ACHN.
The test system of assay [7] is SF-295.
Assay [8] relates to OVCAR-8.
Assay [9] concerns NCI-H522.
For assay [10], the system named is RXF 393.
The test system of assay [11] is SF-539.
For assay [12], the system named is COLO 205.
The subject of assay [13] is TK-10.
For assay [14], the system named is SN12C.
For assay [15], the system named is OVCAR-3.
Assay [16] relates to NCI-H226.
Assay [17] concerns HL-60.

For the molecule `Clc1ccc(C2=Nc3ccccc3SC(c3cccs3)C2)cc1` (configuration not stated), the GI50 in assay [1] is 11.8 µM (inactive); in assay [2] it was 14 µM (inactive); in assay [3] it was 14.3 µM (inactive); in assay [4], 13.6 µM (inactive); in assay [5], 18.2 µM (inactive); in assay [6], 15.3 µM (inactive). Also, the GI50 is 15 µM (inactive) in assay [7]; 16.2 µM (inactive) in assay [8]; 18.1 µM (inactive) in assay [9]; 10.7 µM (inactive) in assay [10]; 16.8 µM (inactive) in assay [11]; 17.4 µM (inactive) in assay [12]. Besides, the GI50 in [13] was 17.3 µM (inactive); in [14] it was 15.6 µM (inactive); in [15] it was 11.5 µM (inactive).

For the molecule `COc1nc(OC)c2c(=O)oc(-c3ccccc3)cc2n1`, the GI50 in assay [1], in [2], in [16], in [3], in assay [4] and in [6] was > 100 µM (inactive) each time. The GI50 in [7], in assay [8], in assay [9], in assay [10], in assay [11] and in assay [13] was > 100 µM (inactive) each time. Also, the GI50 in assay [14] is > 100 µM (inactive); in [15], > 10 µM (inactive).

Consider `COc1ccc2c(c1)CC1NC2Cc2ccccc21` (configuration not stated), for which the GI50 in [1], in [2], in assay [3], in assay [4], in assay [5] and in [6] was > 100 µM (inactive) throughout. Also, the GI50 in [7], in assay [8], in [9], in assay [11], in assay [12] and in [13] was > 100 µM (inactive) throughout. Also, the GI50 in [14] is > 10 µM (inactive); in [15], > 100 µM (inactive).

Consider `COc1ccc2c(c1)[n+]([O-])c(-c1nc3ccccc3s1)c(N)[n+]2[O-]`, for which the GI50 was 78 µM (inactive) in assay [1]; > 100 µM (inactive) in [2]; > 100 µM (inactive) in assay [16]; > 100 µM (inactive) in [3]; 34 µM (inactive) in assay [4]; > 100 µM (inactive) in [5]. Besides, the GI50 in assay [6] is 93.1 µM (inactive); in [17] it was 39.4 µM (inactive); in [7], > 100 µM (inactive); in [8], > 100 µM (inactive); in assay [9], 51.3 µM (inactive); in assay [11], > 100 µM (inactive). In addition, the GI50 in assay [12] was 36.5 µM (inactive); in [14], > 100 µM (inactive); in [15], 78.7 µM (inactive).

Regarding `CCOC(=O)c1cc(/C=C/C(C)=C/C(=O)OC)oc1C`, the GI50 in assay [1], in assay [2], in assay [3], in assay [4], in assay [5] and in [6] was > 100 µM (inactive) each time. In addition, the GI50 in assay [17] was > 100 µM (inactive); in [7], > 100 µM (inactive); in assay [8], > 100 µM (inactive); in assay [9] it was 45.6 µM (inactive); in [11], > 100 µM (inactive); in assay [12], > 100 µM (inactive). For the same molecule, the GI50 in assay [13] and in [15] was > 100 µM (inactive) in each case.

In the case of `CCOC(=O)C1=C(Nc2cccc3ccccc23)OCC1=O`, the GI50 in assay [1], in [2], in assay [16], in assay [3], in assay [4] and in [5] was > 100 µM (inactive) in each case. In addition, the GI50 in assay [6], in assay [8], in assay [9], in assay [11], in assay [12] and in assay [14] was > 100 µM (inactive) throughout. Moreover, the GI50 in assay [15] was > 100 µM (inactive).

Regarding `Cc1ccc([S+](c2ccccc2)c2cc(C)ccc2C)cc1` (configuration not stated), the GI50 in assay [2] is 29.4 µM (inactive); in [4], > 100 µM (inactive); in assay [5] it was 15.1 µM (inactive); in assay [6], 11.2 µM (inactive); in assay [17], 1.97 µM (inactive); in [7], 12.4 µM (inactive). The GI50 is 4.59 µM (inactive) in [8]; 3.13 µM (inactive) in assay [9]; 13.7 µM (inactive) in assay [11]; 2.99 µM (inactive) in assay [12]; 5.94 µM (inactive) in assay [14]; 2.26 µM (inactive) in assay [15].

Take `CCOC(=O)/C(=C\c1ccccc1)C(=O)O`: the GI50 in assay [1], in [2], in assay [16], in assay [3], in assay [4] and in assay [5] was > 100 µM (inactive) in each case. In addition, the GI50 in [6], in assay [17], in [7], in assay [8], in [9] and in assay [11] was > 100 µM (inactive) throughout. The GI50 in assay [12], in [14] and in assay [15] was > 100 µM (inactive) throughout.

As for `COc1cc(/C=C\c2ccc(Br)cc2)cc(OC)c1OC`, the GI50 was 0.000463 µM (active) in assay [1]; 0.0622 µM (active) in [2]; 0.0014 µM (active) in assay [16]; 0.01 µM (active) in [3]; 0.00321 µM (active) in assay [4]; 0.01 µM (active) in [5]. The GI50 was 0.000794 µM (active) in assay [6]; 0.000318 µM (active) in [17]; 0.000296 µM (active) in [7]; 0.00161 µM (active) in assay [8]; 0.000357 µM (active) in assay [9]; 0.000463 µM (active) in [11]. Moreover, the GI50 in assay [12] was 0.00486 µM (active); in assay [14] it was 0.00168 µM (active); in assay [15], 0.000341 µM (active).

Consider `Nc1cccc2c1C(=O)c1cccc(N)c1C2=O`, for which the GI50 in assay [1], in assay [2], in [16], in assay [3], in assay [4] and in [5] was > 100 µM (inactive) in each case. Moreover, the GI50 is > 100 µM (inactive) in [6]; > 100 µM (inactive) in assay [8]; > 100 µM (inactive) in [9]; 46.3 µM (inactive) in [10]; > 100 µM (inactive) in assay [11]; > 100 µM (inactive) in assay [12]. The GI50 in assay [13], in assay [14] and in assay [15] was > 100 µM (inactive) throughout.
